Values after ≈ are worked out from the molar mass of the structure shown. Where two headings read alike, the source gives them in different places.
Experiments:
[1] = Cytotoxicity counter-screening (MTT), HepG2; details: human, HepG2 CC50, 48 h, MTT
Description: HepG2 and CHO cells were maintained at 37 °C, under a humidified atmosphere of 5% CO2, in DMEM high glucose media (Gibco) supplemented with 10% heat-inactivated FBS and 1% (v/v) Penicillin-Streptomycin antibiotics. […] The supernatant was discarded, and the cell pellet was resuspended in 1 mL DMEM media for cell counting by Trypan Blue. To determine the toxicity, cells were resuspended and seeded at a concentration of 1x10^4 cells/well in a 96-well plate and incubated for 24 h^[9,10]. Cells were treated in duplicate with a 10-fold serial dilution starting at 100 ug/mL of inhibitor in new media. After 48 h incubation, the viable cells were measured using the MTT tetrazolium reduction assay, where sterile 25 µL of a 5 mg/mL MTT was added to each well and incubated for 4 h before the […] formazan crystals were dissolved with 100 µL DMSO (Merck) per well. The absorbance, a measure of intracellular reduction of MTT, was measured at 540 nm (Multiskan GO). Emetine (50 µM) was included as a positive drug control, and the background was subtracted from all data before being normalised to the untreated^[9,10].

[2] = test system: multidrug-resistant PfK1 ABS parasites; assay: SYBR Green I proliferation assay, PfK1 asexual blood stages; type: cell-based; details: Plasmodium falciparum
Description: (B) Antiplasmodial activity of nine anticancer aurora kinase inhibitors (selected based on their PfNF54 ABS activity) against P. falciparum multidrug-resistant ABS parasites (PfDd2 and PfK1). (C) Kinobead competitive inhibition data.
All inhibitors were dissolved in dimethyl sulfoxide (DMSO). Antiplasmodium activity of selected anti-cancer inhibitors was determined on P. falciparum NF54 and Dd2 strains, measuring SYBR Green I fluorescence (485 nm excitation, 538 nm emission) as an indicator of proliferation^[4]. Ring-stage ABS parasites (1% parasitemia, 1% hematocrit) were treated with compounds for 96 h at 37 °C with chloroquine disulphate (0.5 μM) as positive drug control. The activity of the inhibitors was tested against immature (>95% stage II/III) and late-stage (>90% stage IV/V) gametocytes using a luciferase reporter assay on 3D7elo1-pfs16-CBG99 ^[1]. […] Luciferase activity was determined using a non-lysing D-luciferin substrate (1 mM in 0.1 M citrate buffer, pH 5.5, 100 μL) and bioluminescence was detected with a GloMax® - Multi Detection System with Instinct® software.

[3] = test system: P. falciparum drug-sensitive NF54 (PfNF54) asexual intra-erythrocytic parasites; assay: SYBR Green I proliferation assay, PfNF54 asexual blood stages; type: cell-based, Plasmodium falciparum
Source text: Figure 1 Activity profile of Aur class anticancer inhibitors across the life cycle of Plasmodium falciparum parasites. a) Activity (IC50) of inhibitors (grouped based on specificity against human Aur) against P.falciparum drug‐sensitive (PfNF54) asexual intra‐erythrocytic parasites as measured with SYBR Green I fluorescence as an indicator of viability and proliferation. […] ABS, asexual blood stages of the parasite; HsAur, human Aur.
P. falciparum drug sensitive NF54 (PfNF54) and drug-resistant Dd2 (PfDd2, chloroquine, pyrimethamine and mefloquine resistant) strains were cultured in vitro in human O^+/A^+ erythrocytes (5% hematocrit) in complete medium at 2–5% parasitemia, 37 °C, shaking at 60 rpm under hypoxic conditions (90% N2, 5% O2 and 5% CO2). […] Gametocytogenesis was followed with daily media changes (including glucose) and ABS parasites removed with 50 mM N-acetylglucosamine (day 1–4 for stage II/III; days 3–7 for stage IV/V).
All inhibitors were dissolved in dimethyl sulfoxide (DMSO). […] Ring-stage ABS parasites (1% parasitemia, 1% hematocrit) were treated with compounds for 96 h at 37 °C with chloroquine disulphate (0.5 μM) as positive drug control. […] Luciferase activity was determined using a non-lysing D-luciferin substrate (1 mM in 0.1 M citrate buffer, pH 5.5, 100 μL) and bioluminescence was detected with a GloMax® - Multi Detection System with Instinct® software.

[4] = test system: synthetic β-hematin (βH) formation; assay: NP-40 mediated cell-free β-hematin inhibition assay; type: biochemical; details: cell-free NP-40, pH 4.8, 5 h
Description: The β-hematin inhibition assay, as described in^[30,31] was used to test the inhibitors for their ability to inhibit β-hematin formation. The test samples were prepared as 20 mM or 10 mM stock solutions in dimethyl sulfoxide (DMSO). Serial dilutions of each inhibitor (100 μL) were performed from column 12 to column 2 of a 96-well plate in triplicate, with column 1 serving as a negative control (0 μM test inhibitor). The samples were tested at a starting in-well concentration of 1000 μM (20 mM stock) or 500 μM (10 mM stock). An “NP-40 substitute” detergent was added (305.5 μM) to each well to mimic the lipophilic environment in which hemozoin formation occurs within the parasite’s digestive vacuole, in helping to mediate the formation of β-hematin. A 25 mM hematin stock was prepared by sonicating heme in DMSO and then suspending 178.8 μL of this in 1 M acetate buffer (20 mL, pH 4.8). Then, 100 μL of the hematin suspension was added to each well to a final well volume of 200 μL. The plate was then incubated for 5 hours at 37 °C. After incubation, 32 μL and 60 μL of 50% pyridine solution and acetone were added, respectively. The pyridine-ferrochrome method by^[31] was used for UV-vis analysis, with the heme-pyridine complex absorbance measured at 405 nm. Data were analysed using Microsoft Excel and GraphPad Prism v10.5 software.

[5] = test system: PfNF54 female gametes; assay: P. falciparum Dual Gamete Formation Assay (PfDGFA), female; type: cell-based, Plasmodium falciparum
Description: (§1) The Pf DGFA^[8] was performed by incubating PfNF54 gametocytes with test molecules in 384-well plates for 48 h. Gametogenesis was triggered with the addition of xanthurenic acid and a decrease in temperature. Male and female gametes were identified through fluorescent microscopy and quantified from recorded data using a custom imaging algorithm and then compared to negative (DMSO) and positive (1 µM cabamiquine) controls. Percentage inhibition was calculated, and dose-response curves were constructed in GraphPad Prism v10.5 to calculate IC50 values.

[6] = Kinetic solubility; type: physicochemical; details: aqueous buffer, kinetic from dmso stock; PBS, pH 7.4; read-out: Kin sol pH 7.4
Source text: In vitro ADME analysis for logD, kinetic solubility (PBS, pH 7.4), human liver microsome clearance and t1/2, rat hepatocyte clearance and t1/2, and protein binding in Albumax media (simulating the malaria parasite culture media) was all performed as per standard assays by TCG LifeSciences.

[7] = test system: PfNF54 male gamete formation (exflagellation); assay: P. falciparum Dual Gamete Formation Assay (PfDGFA), male; type: cell-based; details: Plasmodium falciparum
Description: as §1

[8] = test system: asexual intra-erythrocytic parasites; assay: Fixed-ratio isobologram analysis; details: additivity/indifference 0.8–1.4, antagonism >1.4
Description: Isobolograms were generated by plotting paired FIC values linearly, utilizing the average of three biological replicates, each performed in technical duplicates. The paired FIC values for each drug combination were analyzed, and the mean FIC values (ΣFIC) were calculated to delineate synergism (<0.8), additivity/indifference (0.8–1.4), or antagonism (>1.4).

[9] = multidrug-resistant K1, read-out: Pf K1 ABS IC50
[10] = Plasmodium falciparum, NF54, 96 h, read-out: Pf NF54 ABS IC50
[11] = Plasmodium falciparum, NF54, read-out: Pf NF54 ABS IC50
[12] = Plasmodium falciparum, NF54, 96 h, ring-stage ABS, 96 h, SYBR Green I, read-out: Pf NF54 ABS IC50
[13] = Plasmodium falciparum, NF54, bounds stated in text, read-out: Pf NF54 ABS IC50
[14] = 48 h, read-out: Pf DGFA IC50 Male
[15] = read-out: IC50 male gamete exflagellation
[16] = Plasmodium falciparum, 48 h, read-out: Pf DGFA IC50 Female
[17] = ring-stage ABS, 96 h, SYBR Green I, read-out: Pf NF54 ABS IC50

SMILES | CC50 at 48 h [1] [nM] | IC50 [2, 9] [nM] | IC50 [3, 10] [nM] | IC50 [3, 11] [nM] | IC50 [4] [nM] | CC50 at 48 h ([1]; HepG2 cells) [nM] | IC50 [3, 12] [nM] | IC50 [3, 13] [nM] | IC50 ([5]; Plasmodium falciparum, 48 h; read-out: Pf DGFA IC50 Female) [nM] | solubility kinetic [6] [µM] | IC50 [7, 14] [nM] | IC50 [7, 15] [nM] | IC50 ([5]; 48 h; read-out: Pf DGFA IC50 Female) [nM] | IC50 [5, 16] [nM] | IC50 [3, 17] [nM] | ΣFIC50 in combination with CQ [8] | ΣFIC50 in combination with ML10 [8] | IC50 ([2]; K1, read-out: Pf K1 ABS IC50) [nM]
CCN(CCO)CCCOc1ccc2c(Nc3cc(CC(=O)Nc4cccc(F)c4)n[nH]3)ncnc2c1 [AZD-1152, AZD-1152-HQPA] | > 15000 | 341 | 753 | < 1000 | < 20000 | – | – | – | – | – | – | – | – | – | – | – | – | –
O=C(Nc1cccc(Nc2nccc(Nc3cccc(C(F)(F)F)c3)n2)c1)C1CC1 [Aki III, Aurora kinase inhibitor III] | – | 1380 | – | – | < 20000 | 18400 | 819 | < 1000 | – | – | – | – | – | – | – | – | – | –
O=C(Nc1c[nH]nc1-c1nc2ccc(CN3CCOCC3)cc2[nH]1)NC1CC1 [AT83, AT9283] | 12900 ± 4500 | 102 | – | – | – | – | – | – | > 10000 | 22.2 (≈ 8.47 µg/mL) | 800 | 786 ± 16 | – | – | – | – | – | –
COc1cc(N2CCC(N3CCN(C)CC3)CC2)ccc1Nc1ncc(Cl)c(Nc2ccccc2S(=O)(=O)C(C)C)n1 [TAE684, NVP-TAE684] | 8800 | – | – | – | 41400 ± 2300 | – | 280 ± 13 | – | – | 198 (≈ 122 µg/mL) | 120 | 116 ± 17 | 2260 | 2300 ± 50 | 279 | 1.3 | 1.3 | –
CCN1CCN(C(=O)Cc2ccc(Nc3ncc(F)c(Nc4ccc(C(=O)Nc5ccccc5Cl)cc4)n3)cc2)CC1 [AAi I, Aurora A Inhibitor I] | 5100 | – | 475 ± 90.1 | < 1000 | < 20000 | – | – | – | – | – | – | – | – | – | – | – | – | 342
COc1cc2c(Nc3ccc(NC(=O)c4ccccc4)cc3)ncnc2cc1OCCCN1CCOCC1 [ZM-39, ZM-447439] | – | 277 | – | – | < 20000 | > 15000 | < 250 | < 1000 | – | – | > 10000 | – | – | > 10000 | 235 | 1.4 | – | –

— paper PMC12707362, “Targeting Aurora Kinases as Essential Cell‐Cycle Regulators to Deliver Multi‐Stage Antimalarials Against Plasmodium Falciparum” (Angewandte Chemie (International Ed. in English), 2025)
